Data reported in US6815419B1, “Antiulcer agent” (Morinaga Milk Industry Co., Ltd., priority 1999, dated 2004).

How the values were obtained:
[1] = tested on: hydrochloric acid and ethanol induced lesions on the mucous membrane of the stomach; test: Hydrochloric acid and ethanol induced ulcer in rats (method of Robert et al.), stomach examined after 1 hour; type: in vivo, Wistar rats; conditions: for Cumulative degree of lesions on mucous membrane: blank 60
Method: Male Wistar rats weighing 230 to 270 g, 11 weeks old, (purchased from Japan SLC CO., Ltd.) were randomly classified into five groups (each consisting of ten rats).
The experiment was carried out according to the method disclosed by Robert et al. (Gastroenterology, volume 77, pages 433 to 443, 1979). That is, rats were fasted for 24 hours and were orally administered with each test agent at a dose of 10 mg/kg of an active ingredient in body weight. Test agent 1 for a blank test was orally administered to the rats in an amount of 10 ml/kg body weight. After 30 minutes, hydrochloric acid and ethanol solution [hydrochloric acid and ethanol solution (M=mol/dm^3) prepared by mixing 500 mM of hydrogen chloride (HCl) solution and 75% ethanol solution at a volume ratio of […])] was orally administered to the rats at a dose of 5 ml/kg body weight.
After 1 hour, the rats were killed by ether inhalation, the stomach of each rat was taken out to the body surface, the pyloric part of the stomach was ligated, and then the stomach was removed. Then, 10 ml of 2% formalin solution was injected into the stomach from the cardiac part thereof, and the stomach was subsequently immersed in the formalin solution for 10 minutes for fixation. Then, the curvatura ventriculi major of the stomach fixed by formalin was cut to open, and the degree of ulcers was measured by the following method.
That is, the total area of injured portions on the mucous membrane of each rat was measured, and then the degree of lesions on the mucous membrane of each rat (score) was classified into six grades as shown in Table 1 in accordance with the total area of the injured portion.
This experiment was carried out in a manner identical to Example 1, except that α-lactalbumin included in the test agents as an active ingredient was respectively orally administered at a dose of 0 mg/kg body weight (blank test), 1 mg/kg body weight, 10 mg/kg body weight, or 100 mg/kg body weight.
This experiment was carried out in a manner identical to Example 1, except that α-lactalbumin included as an active ingredient in each test agent was respectively orally administered at a dose of 10 mg/kg body weight. The dose for the blank test was 0 mg/kg body weight.

CD (SD) rats = test: Acute toxicity of single oral administration in rats; type: in vivo; conditions: for Number of deaths/Total number, Female: female rats; for Number of deaths/Total number, Male: male rats
Method: Male and Female CD (SD) rats, 6 weeks old, purchased from Japan SLC CO., Ltd.) were respectively and randomly classified into three groups (each consisting of five rats) to be used for this experiment.
Commercially available α-lactalbumin (manufactured by Sigma Co., Ltd.) was dissolved in water for injection (manufactured by Otsuka Pharmaceutical Co., Ltd.) to each of a concentration of 100 mg/ml and 200 mg/ml, which were respectively and orally administered in an amount of 1 ml per 100 g of body weight (at each dose of 1000 mg and 2000 mg per 1 kg of rat body weight) to each rat of each group by single oral instillation by means of a metal probe with a rounded tip, in order to examine the acute toxicity. As a blank test, only water for injection (manufactured by Otsuka Pharmaceutical Co., Ltd.) was administered in the same way to each rat of both groups of males and females.

alcohol-induced ulcers = test: Test Method 1: alcohol-induced ulcers in rats, stomach examined after 7 hours; type: in vivo, Wistar rats; conditions: test group 1; sum of scores of ten rats; oral 10 mg/kg, 1 mg/ml; 7 hours after HCl/ethanol; blank 50
Method: (§1) Male Wistar rats weighing 230 to 270 g, 11 weeks old, (purchased from Japan SLC CO., Ltd.) were randomly classified into six groups (each consisting of ten rats).
(§2) As test agents (antiulcer agents including α-lactalbumin of the present invention as an active ingredient), commercially available α-lactalbumin (manufactured by Sigma Co., Ltd.) was dissolved in distilled water to a concentration of 1 mg/ml to be used. As a test agent for a blank test, distilled water was used.
This experiment was carried out according to the method disclosed by Robert et al. (Gastroenterology, volume 77, pages 433 to 443, 1979) in a manner similar to Example 1. That is, rats fasted for 24 hours were orally administered with each test agent at a dose of 10 mg/kg of an active ingredient in body weight (test group number 1). The test agent for a blank test was orally administered to rats in an amount of 10 ml/kg in body weight (test group number 2). […]
After 7 hours, the rats were killed by ether inhalation, the stomach of each rat was taken out to the body surface, the pyloric part of the stomach was ligated, and then the stomach was removed. […] Then, the curvatura ventriculi major of the stomach fixed by formalin was cut to open, and the degree of ulcers was measured in a manner identical to Example 1.

stress-induced ulcers = test: Test Method 2: stress-induced ulcers in rats (restraint and water immersion, Takagi and Okabe); type: in vivo, Wistar rats; conditions: test group 3; sum of scores of ten rats; oral 10 mg/kg, 1 mg/ml; 7 hours restraint in water at 23° C.; blank 50
Method: as §1, §2
This experiment was carried out in a manner identical to Method 1 described above, except that ulcers were induced according to the method described by Takagi and Okabe (Japanese Journal of Pharmacology, volume 18, pages 9 to 18, 1968). That is, rats fasted for 24 hours were orally administered with each test agent including at a dose of 10 mg/kg of an active ingredient in body weight (test group number 3). The test agent for a blank test was orally administered to rats in an amount of 10 ml/kg body weight (test group number 4). After 30 minutes, each rat was held in a stainless steel restrictive cage, and was left in a water tank at 23° C., standing and submerging to the depth of the bottom of the breast xiphoid process of the rat.
After 7 hours, each rat was pulled up from the water tank, and the degree of ulcers was measured in a manner identical to Method 1 described above.

[2] = tested on: ulcers caused by indomethacin; test: Test Method 3: ulcers caused by a nonsteroidal anti-inflammatory drug (indomethacin) in rats; type: in vivo, Wistar rats; conditions: test group 5; sum of scores of ten rats; oral 10 mg/kg, 1 mg/ml; 7 hours after indomethacin 30 mg/kg oral; blank 50
Method: as §1, §2
This experiment was carried out in a manner identical to Method 1 described above, except that ulcers were induced in accordance with the method of Okabe, et al. (Japanese Journal of Pharmacology, volume 29, pages 670 to 673, […]). That is, rats fasted for 24 hours were orally administered with the each test agent at a dose of 10 mg/kg of an active ingredient in body weight (test group number 5). The test agent for a blank test was orally administered to each rat in an amount of 10 ml/kg body weight (test group number 6). After 30 minutes, indomethacin at a dose of 30 mg/kg body weight, which is a representative nonsteroidal anti-inflammatory drug, was orally administered.
After 7 hours, the degree of ulcers was measured in a manner identical to Method 1 described above.

α-lactalbumin
Concentration of test agent that shows antiulcer effects ([1]; oral dose fixed at 10 mg/kg): no less than 0.5 mg/ml | Concentration of test agent that shows significant antiulcer effects ([1]; oral dose fixed at 10 mg/kg): no less than 1 mg/ml | Effective dose for oral administration ([1]; rats, oral, significant antiulcer effects): no less than 10 mg per 1 kg of body weight | Cumulative degree of lesions on mucous membrane ([1]; sum of scores (0-6, Table 1) of ten rats, oral 10 mg/kg active ingredient, 1 mg/ml, 30 min before HCl/ethanol): 7 | Cumulative degree of lesions on mucous membrane ([1]; sum of scores of ten rats, concentration 0.25 mg/ml, oral dose 10 mg/kg): 30 | Cumulative degree of lesions on mucous membrane ([1]; sum of scores of ten rats, concentration 0.5 mg/ml, oral dose 10 mg/kg): 13 | Cumulative degree of lesions on mucous membrane ([1]; sum of scores of ten rats, concentration 1 mg/ml, oral dose 10 mg/kg): 7 | Cumulative degree of lesions on mucous membrane ([1]; sum of scores of ten rats, concentration 5 mg/ml, oral dose 10 mg/kg): 5 | Cumulative degree of lesions on mucous membrane ([1]; sum of scores of ten rats, concentration 10 mg/ml, oral dose 10 mg/kg): 5 | Cumulative degree of lesions on mucous membrane ([1]; sum of scores of ten rats, oral dose 1 mg/kg, 1 mg/ml): 47 | Cumulative degree of lesions on mucous membrane ([1]; sum of scores of ten rats, oral dose 10 mg/kg, 1 mg/ml): 7 | Cumulative degree of lesions on mucous membrane ([1]; sum of scores of ten rats, oral dose 100 mg/kg, 1 mg/ml): 3 | Number of deaths/Total number, Female (CD (SD) rats; single oral dose 1000 mg/kg): 0/5 | Number of deaths/Total number, Female (CD (SD) rats; single oral dose 2000 mg/kg): 0/5 | Number of deaths/Total number, Male (CD (SD) rats; single oral dose 1000 mg/kg): 0/5 | Number of deaths/Total number, Male (CD (SD) rats; single oral dose 2000 mg/kg): 0/5 | LD50 (CD (SD) rats; rats, single oral administration): no less than 2000 mg/kg body weight | Cumulative degree of lesions on mucous membrane (alcohol-induced ulcers): 6 | Cumulative degree of lesions on mucous membrane (stress-induced ulcers): 12 | Cumulative degree of lesions on mucous membrane [2]: 23
